Measurements as given in patent US11446282B2, “Methods of treating mixed dyslipidemia and hypertriglycertdemia” (Kowa Company, Ltd., priority 2017, dated 2022).

How the values were obtained:
[1] = target: T1, PPARα (Homo sapiens, UniProt Q07869); assay: PPARα-activating effect (EC50); assay type: biochemical
T1 sequence (Q07869 1-468): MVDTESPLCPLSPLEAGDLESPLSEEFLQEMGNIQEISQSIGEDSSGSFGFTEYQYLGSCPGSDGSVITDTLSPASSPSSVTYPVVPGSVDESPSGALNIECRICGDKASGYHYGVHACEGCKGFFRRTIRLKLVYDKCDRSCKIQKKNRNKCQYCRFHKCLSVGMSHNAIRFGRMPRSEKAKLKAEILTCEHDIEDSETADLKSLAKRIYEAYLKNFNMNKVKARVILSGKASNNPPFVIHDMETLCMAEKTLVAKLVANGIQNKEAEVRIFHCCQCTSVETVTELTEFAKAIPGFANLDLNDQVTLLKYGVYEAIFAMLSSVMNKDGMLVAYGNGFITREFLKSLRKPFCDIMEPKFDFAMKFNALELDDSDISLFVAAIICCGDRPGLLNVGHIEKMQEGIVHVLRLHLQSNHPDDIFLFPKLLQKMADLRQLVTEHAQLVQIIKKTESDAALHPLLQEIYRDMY

[2] = test system: organic anion-transporting polypeptide (OATP); assay: Drug-drug interaction with strong OATP inhibitors
[3] = Study K-877-12, pharmacokinetics in patients with renal impairment; assay type: in vivo, human; conditions: Japanese patients with renal impairment, even severe
[4] = test system: dyslipidemic patients with renal impairment; assay: Example 3 phase III 52-week trial: adverse events and adverse drug reactions; assay type: in vivo, human
Protocol: This was a multicenter, single-arm, open-label, phase III trial. The inclusion criteria were as follows: (1) patients with dyslipidemia aged >20 years at the time of informed consent; (2) men and postmenopausal women; (3) fasting serum TG≥1.70 mmol/L (150 mg/dL) at two consecutive measurements during screening; and (4) patients who followed dietary and physical exercise guidance for >12 weeks before enrollment.
During the screening period (8 weeks prior to treatment initiation), tests were performed twice to determine patient eligibility. Thereafter, eligible patients orally received pemafibrate 0.2 mg/day (twice daily) for 52 weeks. From week 12 of the treatment period onwards, the investigators were instructed that the dose could be increased from 0.2 mg/day to 0.4 mg/day (twice daily) if there was an inadequate response to the initial dose based on fasting serum TG levels ≥1.70 mmol/L (150 mg/dL). Fasting blood and urine samples were collected at each visit. Blood and urine sample in patients with hemodialysis were collected just before dialysis. LDL-C levels were measured using the direct method. Lipoprotein fractions were measured by HPLC at baseline and weeks 12 and 40.
The primary efficacy endpoint was the percent change in fasting serum TG from baseline to the last evaluation point. The primary safety endpoints were the incidence of an AE or ADR occurring after drug administration during the study. Secondary efficacy endpoints included percent changes in lipid variables and changes in inflammation variables at week 52 [using the last-observation-carried-forward (LOCF)]. Secondary safety endpoints included changes in the levels of aspartate aminotransferase (AST), ALT, -GT, ALP, serum creatinine, eGFR, and CK at week 52. […]
The numbers of patients with AEs and ADRs and the incidences of AEs and ADRs were calculated in the analysis of primary safety endpoints. […] The secondary safety endpoints were analyzed with Wilcoxon signed-rank tests. […] Where indicated, the data are expressed as means±standard deviation (SD).

specificity for the PPARα receptor ([1]; versus fenofibrate): more specific
times more active than fenofibric acid in terms of the EC50 of the PPARα-activating effect ([1]; versus fenofibric acid): approximately 2500 times
interaction with strong OATP inhibitors (e.g., cyclosporine and rifampin) [2]: interact
differences in pharmacokinetics (PK) with renal impairment [3]: no meaningful differences
Compound: CC[C@@H](Oc1cccc(CN(CCCOc2ccc(OC)cc2)c2nc3ccccc3o2)c1)C(=O)O [Pemafibrate, (2R)-2-[3-({1,3-benzoxazol-2-yl[3-(4-methoxyphenoxy)propyl]amino}methyl)phenoxy]butanoic acid]
incidence of adverse drug reactions ([4]; 0.2 (0.4) mg/day, 52 weeks): 31.7%
incidence of adverse events ([4]; 0.2 (0.4) mg/day, 52 weeks): 82.0%
association of adverse event and adverse drug reaction incidences with baseline eGFR ([4]; in vivo): not associated
